{
  "source": "patent US9494573B2",
  "about": "“In vitro tumor in dish kit and method” (University of Kansas, priority 2012, dated 2016)",
  "key": {"[1]": {"test_system": "human ovarian cancer epithelial cells from ascites fluid", "test": "Tumor in Dish model using primary tumor cells: cancer cells", "format": "cell-based", "conditions": "TiD with primary patient cells, FIG. 5", "from_the_text": "Human ovarian cancer epithelial cells were isolated from the ascites fluid of a patient and combined with normal cells as described in Example 1 to form TiD."}, "[2]": {"test_system": "normal cells in the PLiD"}},
  "data": [
    {"smiles": "N.N.[Cl][Pt][Cl]", "note": "[cisplatin]", "values": [
      {"measurement": "killing of ovarian cancer cells from the ascites fluid", "setting": "[1]", "result": "killed most of the ovarian cancer cells"},
      {"measurement": "effect on the surrounding normal cells", "setting": "[2]", "result": "affected the normal cells"}
    ]}
  ]
}
